In US7960439B1, “Environmentally sensitive foldable oligomers” (Iowa State University Research Foundation, Inc., priority 2006, dated 2011):

Experiments:
[1] = Fluorescence quenching of NBD-labeled cholate oligomers by hydrophilic quencher 11; type: binding
Description: Fluorescence Quenching of the NBD-Labeled Cholate Oligomers 1-4: Typical procedures for the quenching experiment are as follows. Stock solutions (1.0×10^−3 M) of 1-4 in anhydrous THF were prepared. An aliquot (25.0 μL) of the stock solution was diluted by 2.00 mL of carbon tetrachloride with 5 vol. % DMSO in a quartz cuvet. Aliquots (5.0 μL, 0.8 M) of the quencher (11 or 12) in THF were added with a Hamilton Gastight syringe. After each addition, the sample was vortexed for 1 minute before the fluorescence spectrum was recorded. The excitation wavelength was set at 336 nm and the maximum emission intensity at 527 nm was monitored.

[2] = Solvent denaturation of donor-acceptor labeled cholate oligomers followed by FRET (two-state model); type: physicochemical; settings: for m (in parentheses) / ΔG0 (in parentheses): linear fitting of unfolding free energies (FIG. 12); for m / ΔG0: nonlinear least-squares fitting to two-state model (FIG. 11)
Description: According to the two-state model, at any given concentration of the denaturant (i.e., DMSO), only the folded and unfolded conformations are present and their fractions are represented by fF and fU. Fraction of the unfolded conformation can be calculated by: fU=(IF−I)/(IF−IU) (2) in which I is the observed emission intensity of the acceptor in a given foldamer, IF is the emission intensity of the acceptor in the fully folded conformer, and IU is the emission intensity of the acceptor in the fully unfolded conformer. The equilibrium constant (Keq) and the free energy (ΔG) for the folding reaction can be calculated using ΔG=RT ln Keq=−RT ln(fU/fF)=−RT ln [fU/(1−fU)] (3)
In order to calculate fractions of the unfolded conformations, both IF and IU must be known for different foldamers. The emission intensity of the acceptor in the 1:1 mixture of the monomer A 8 (MA) and monomer D 9(MD) should be good approximations for IU since the emission intensity of the longer foldamers (e.g., pentamer-DA 5 (PDA)) does converge to that of the (MA+MD) mixture upon unfolding. The value of IF, on the other hand, cannot be obtained directly because none of the three foldamers seem to be fully folded under the initial condition of 1% DMSO.
In general, to obtain the values of IF for PDA, hexamer-DA 6 (HXDA), and heptamer-DA 7 (HPDA), it is useful to first make an assumption for fU (e.g., fU=0.1 for the HPDA) in 1% DMSO and use it to calculate the corresponding value of IF, which is designated IF(1). Using IF(1), the first set of fU(1) can be calculated at different DMSO percentages according to equation 2. In the two-state model, the free energies are linearly related to the concentration of denaturant (i.e., DMSO): ΔG=ΔG0−m[DMSO] (4) in which ΔG0 is the free energy for the folding reaction in the absence of denaturant and m measures how sensitive the folding equilibrium is toward DMSO percentage. From equations 2, 3, and 4, the following equation 5 can be obtained, where equation 5 describes the relationship between fU and DMSO percentage: fU=1/{1+1/exp[−(ΔG0−m[DMSO])/RT]} (5)
As a result, the initial values of ΔG0 and m (which are designated as ΔG0(1) and m1) can be obtained by nonlinear least-squares fitting to the first set of fU(1). The resulting ΔG0(1) and m1 are used to calculate the refined value of IF(2) using equations 5 and 2. This process is repeated as long as there is a fairly large difference between the entering IF(n) value and the resulting IF(n+1) value. In general, fitting of the data improves over several rounds of refinement. The refinement is stopped in the end when the values of IF(n) and IF(n+1) are within 1% of each other and are taken as the final value of IF.
In such data processing, it is assumed that IF was independent of DMSO percentage. Such an assumption is expected to underestimate the stability of the cholate foldamers. This is because the emission of MA is shown to be slightly quenched by DMSO—the emission intensity decreases by about 20% over 1-5% DMSO.
FRET Study of the Donor-Acceptor Labeled Cholate Oligomers 5-9 Stock solutions (2.0×10^−4M) of 5-9 in anhydrous THF were prepared. An aliquot (20.0 μL) of the stock solution was diluted by (a) 2.00 mL of ethyl acetate/hexane (v/v=1.05/2) with 1 vol. % DMSO and (b) […] 2.00 mL of ethyl acetate/hexane (v/v=1/1) with 1 vol. % DMSO in a quartz cuvet. Ten aliquots of DMSO (10.0 μL each) were added to the sample. After each addition, the sample was vortexed for 1 minute before the fluorescence spectrum was recorded. The excitation wavelength was set at 287 nm.

[3] = DMSO in ethyl acetate/hexane (1/1)
[4] = DMSO in ethyl acetate/hexane (1/2)

Compound | reduction of fluorescence by quencher 11 ([1]; 5.6 mM of 11 in 2% methanol/CCl4) | reduction of fluorescence by quencher 11 ([1]; 5.6 mM of 11 in 5% DMSO/CCl4) | m (in parentheses) [2, 3] | ΔG0 (in parentheses) [2, 3] | m [2, 3] | ΔG0 [2, 3] | m (in parentheses) [2, 4] | ΔG0 (in parentheses) [2, 4] | m [2, 4] | ΔG0 [2, 4]
COC(=O)CCC(C)C1CCC2C3C(O)CC4CC(NC(=O)CCC(C)C5CCC6C7C(O)CC8CC(NC(=O)CCC(C)C9CCC%10C%11C(O)CC%12CC(NC(=O)CCC(C)C%13CCC%14C%15C(O)CC%16CC(NC(=O)CCC(C)C%17CCC%18C%19C(O)CC%20CC(NC(=O)CCC(C)C%21CCC%22C%23C(O)CC%24CC(NC(=O)CCC(C)C%25CCC%26C%27C(O)CC%28CC(Nc%29ccc([N+](=O)[O-])c%30nonc%29%30)CCC%28(C)C%27CC(O)C%25%26C)CCC%24(C)C%23CC(O)C%21%22C)CCC%20(C)C%19CC(O)C%17%18C)CCC%16(C)C%15CC(O)C%13%14C)CCC%12(C)C%11CC(O)C9%10C)CCC8(C)C7CC(O)C56C)CCC4(C)C3CC(O)C12C (stereo not shown) [Compound 4] | 60 fold | < 3 fold | – | – | – | – | – | – | – | –
CC(CCC(=O)Nc1cccc2ccccc12)C1CCC2C3C(O)CC4CC(NC(=O)CCC(C)C5CCC6C7C(O)CC8CC(NC(=O)CCC(C)C9CCC%10C%11C(O)CC%12CC(NC(=O)CCC(C)C%13CCC%14C%15C(O)CC%16CC(NC(=O)CCC(C)C%17CCC%18C%19C(O)CC%20CC(NC(=O)CCC(C)C%21CCC%22C%23C(O)CC%24CC(NS(=O)(=O)c%25cccc%26c(N(C)C)cccc%25%26)CCC%24(C)C%23CC(O)C%21%22C)CCC%20(C)C%19CC(O)C%17%18C)CCC%16(C)C%15CC(O)C%13%14C)CCC%12(C)C%11CC(O)C9%10C)CCC8(C)C7CC(O)C56C)CCC4(C)C3CC(O)C12C (stereo not shown) [Compound 6] | – | – | 0.89 kcal/mol | 1.9 kcal/mol | 0.81 ± 0.06 kcal/mol | 1.8 ± 0.1 kcal/mol | 0.52 kcal/mol | 1.8 kcal/mol | 0.50 ± 0.02 kcal/mol | 1.7 ± 0.1 kcal/mol
